In patent publication US12044651B2, “Sensor device and methods” (SCENTIAN BIO LIMITED, priority 2016, dated 2024):
pEC50: −log10 of the molar value.

Columns and labels:
Assay type in all cases: binding
[1] = biological target: T1, OR35a (Drosophila melanogaster, UniProt Q9V3Q2); assay: EIS sensor, Or35a liposomes on gold electrode (Example 1); conditions: Or35a liposomes, EIS
T1 sequence (Q9V3Q2 1-409): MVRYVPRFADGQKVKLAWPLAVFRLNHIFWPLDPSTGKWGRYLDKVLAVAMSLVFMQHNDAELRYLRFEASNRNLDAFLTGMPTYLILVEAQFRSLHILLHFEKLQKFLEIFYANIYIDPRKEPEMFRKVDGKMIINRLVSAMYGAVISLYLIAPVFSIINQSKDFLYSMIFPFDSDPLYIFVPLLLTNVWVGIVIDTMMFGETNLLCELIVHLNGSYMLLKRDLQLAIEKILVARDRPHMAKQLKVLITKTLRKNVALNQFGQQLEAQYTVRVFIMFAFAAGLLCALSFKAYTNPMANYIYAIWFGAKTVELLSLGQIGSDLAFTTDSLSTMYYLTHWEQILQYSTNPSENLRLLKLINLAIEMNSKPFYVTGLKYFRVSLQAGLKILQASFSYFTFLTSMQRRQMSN
Method: Liposomes were prepared using a phospholipid solution produced by evaporating solutions containing: phosphatidylethanolamine (PE), phosphatidylserine (PS), phosphatidylcholine (PC), and cholesterol (CH) at a molar ratio of 5:3:3:1 in a small glass tube under a stream of N2 gas, then desiccating under vacuum for 1 h. […] To promote the formation of liposomes, 10 freeze/thaw steps were performed by transferring the tube from liquid nitrogen to a 40° C. water bath. Liposomes were then sized by passing the lipid solution 11 times through a 100-nm polycarbonate membrane using an Avestin LiposoFAST extruder unit (Avestin, Germany). Glycerol was added at 10% of the final volume and aliquots at 10 mg/mL were snap frozen in liquid nitrogen and stored at -80° C. Prior to their use, liposomes were defrosted on ice and then destabilized by incubating with 0.2% CHAPS for 15 min at room temperature. Then 200 μg of purified odorant receptor^14 was added to 1 mg of liposomes and rotated at 10 rpm for 1 h at room temperature. […] The Bio-Beads were removed after each incubation period. The OR integrated liposomes were pelleted by centrifugation at 100,000 g for 1 h, and were resuspended in 500 μL of rehydration buffer. Integration of OrXs into liposomes was assessed by density gradient ultracentrifugation (DGU) using Accudenz (Accurate Chemical & Scientific Corporation, USA). […] The sample was then centrifuged at 100,000 g for 4 h at 4° C. Liposomes will float to the top of the gradient after Accudenz DGU due to their low density. 1.3 Electrode Cleaning Gold disk (2 mm) electrodes were cleaned with polishing with Alumina paste for 2 minutes, ultra-sonicated in pure ethanol and then Milli-Q water for 5 minutes each. […] Charge transfer resistance (Rct) of electrodes were calculated by fitting obtained data to a Randles' equivalent circuit [Rs+CPE/(Rct+W)] comprising of a solution resistance (Rs) in series with a constant phase element (CPE) and in parallel with charge transfer resistance (Rct) and Warburg diffusion element. […]

[2] = biological target: T2, Or22a (Drosophila melanogaster, UniProt P81909); assay: QCM-D sensor with Or22a liposomes (Example 6); conditions: 1.6 to 200 μM
T2 sequence (P81909 1-397): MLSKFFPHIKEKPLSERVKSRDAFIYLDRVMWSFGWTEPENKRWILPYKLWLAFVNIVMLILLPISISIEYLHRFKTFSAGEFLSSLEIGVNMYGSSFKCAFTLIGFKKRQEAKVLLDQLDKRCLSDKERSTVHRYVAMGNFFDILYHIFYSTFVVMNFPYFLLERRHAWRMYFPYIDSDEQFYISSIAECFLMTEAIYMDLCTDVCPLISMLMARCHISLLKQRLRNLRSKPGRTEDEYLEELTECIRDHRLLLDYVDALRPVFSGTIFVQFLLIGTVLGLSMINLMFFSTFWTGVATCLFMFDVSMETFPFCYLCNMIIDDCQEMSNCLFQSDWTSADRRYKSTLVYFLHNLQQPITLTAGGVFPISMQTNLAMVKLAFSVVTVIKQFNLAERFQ
Method: Gold (100 nm) sensor crystals were sonicated in ethanol and milli-Q water for 15 minutes each respectively. A 5:1:1 volume ratio of milli-Q water, ammonia (25%), and hydrogen peroxide (30%) was heated to 75° C. for 5 minutes and the sonicated crystals were placed in the heated solution for 5 minutes. Then the crystals were removed from the solution and rinsed with milli-Q water before drying with nitrogen gas. The clean gold crystals were thiol-functionalized by exposing them to 2 mM ethanolic solution of MHA overnight followed by washing with ethanol solution in order to remove excess or loosely bound molecules.

[3] = biological target: T3, OR71a (Drosophila melanogaster, UniProt Q9VUK5); assay: EIS sensor, Or71a liposomes on gold electrode, optimized conditions (Example 5)
T3 sequence (Q9VUK5 1-378): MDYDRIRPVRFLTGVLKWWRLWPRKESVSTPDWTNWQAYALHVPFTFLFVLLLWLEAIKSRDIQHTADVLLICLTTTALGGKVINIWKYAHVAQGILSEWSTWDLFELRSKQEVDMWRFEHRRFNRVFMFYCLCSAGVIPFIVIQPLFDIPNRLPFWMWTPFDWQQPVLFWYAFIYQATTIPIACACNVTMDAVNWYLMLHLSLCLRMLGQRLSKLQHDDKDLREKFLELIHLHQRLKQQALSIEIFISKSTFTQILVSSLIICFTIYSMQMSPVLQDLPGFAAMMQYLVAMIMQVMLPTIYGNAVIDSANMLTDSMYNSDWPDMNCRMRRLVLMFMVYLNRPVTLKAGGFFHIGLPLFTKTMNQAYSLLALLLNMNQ

CCC/C=C/C=O [E2-hexenal]
pEC50 [1]: ~8.00 | Sensitivity limit (lowest detectable concentration) ([1]; signal/noise >3): 36 pM

CCCCCC(=O)OC [methyl hexanoate]
change in oscillation frequency [2]: increase in the frequency

COC(=O)c1ccccc1O [methyl salicylate]
EIS response to control ligand [3]: do not respond
